# Test results: patent US20200093103A1, “BREEDING WATER FOR ANGUILLIFORMES AND METHOD FOR REARING ANGUILLIFORMES” (SHIN NIPPON BIOMEDICAL LABORATORIES, LTD., priority 2016, published 2020)
# System: Anguilla japonica leptocephali
# Experiment: Induction of Anguilla japonica metamorphosis by T4 treatment in 23° C. breeding water
# Type: in vivo
# Design: key: L: During life, no characteristics of metamorphosis seen.; Stage 1: Starting phase of metamorphosis. The rostral end is rounded, and intestinal degeneration starts.; Stage 2: Peak phase of metamorphosis. Intestinal degeneration becomes pronounced.; Stage 3: Late phase of metamorphosis.; Stage 4: Pre-glass eel stage. Almost the eel form, but the body height still remains
# Text: Stage 1: Starting phase of metamorphosis. The rostral end is rounded, and intestinal degeneration starts.
# Stage 2: Peak phase of metamorphosis. Intestinal degeneration becomes pronounced. In the second half, the anus reaches to near the last vertical blood vessel (VBV last).
# Stage 3: Late phase of metamorphosis. The preanal length (PAL) becomes equal to or shorter than the last vertical blood vessel length (VBV last Length) (PAL VBV last Length). The body height is apparently low.
# Stage 4: Pre-glass eel stage. Almost the eel form, but the body height still remains. Melanophores on the body surface or endogenous melanophores are not yet seen.
# Elver stage: Juvenile stage. Food intake can be identified.
# A thyroid hormone (e.g., thyroxine (T4)) is adjusted to 50 to 100 mM in a 1- to 2-mL volume messflask. As a solvent, known solvents (water, alcohol) can be used. Ethanol is preferably used as the solvent.
# For example, using ethanol as a solvent, T4 adjusted to 50 mM is diluted 500-fold, 5,000-fold, and 50,000-fold, respectively, and adjusted to […], 1 μM, and 100 nM. A feed can be prepared in this manner.
# Artificial seawater is added to a breeding vessel, and 1/1000 of the […] T4 is added to prepare […] T4 breeding water.
# Half of the breeding water is replaced every two days with breeding water of the same concentration. In the case where the concentration is changed, for example, in the case of changing from 10 nM to 2 nM, 80% to the breeding water is removed, and unadjusted artificial seawater is newly added to make 1 L.
# Leptocephali visually considered to have reached a total length of 40 mm (or may be 30 mm to 50 mm, may be 35 mm to 45 mm, or may also be 35 mm or more, 40 mm or more, or 45 mm or more) are selected, anesthetized with 2-phenoxyethanol, and then photographed, and the total length of each larva is measured using an image analyzing device.
# The larvae are placed in 10 nM T4 breeding water and then placed in an incubator set at 23° C., and breeding is started. In first one week, observation is performed every two days, and half of the 10 nM T4 breeding water is replaced each time. The average amount of thyroid hormone in the breeding water in stage 1 is 1 nM to 100 nM, for example, and may also be 3 nM to 30 nM, or 5 nM to 20 nM.
# For larvae visually judged to have reached the second half of stage 2, the concentration of the breeding water is changed. The breeding water is diluted 5-fold or 10-fold and adjusted to 2 nM or 1 nM T4, and breeding is continued. The average amount of thyroid hormone in the breeding water in stage 2 may be, as compared with the breeding water of stage 1, diluted 2-fold to 20-fold, diluted 3 to 15-fold, or diluted 5 to 10-fold as described above. The average amount of thyroid hormone in the breeding water in stage 2 is 0.1 nM to 20 nM, for example, and may also be 0.5 nM to 10 nM, 1 nM to 5 nM, or 1 nM to 2 nM.
# For larvae visually judged to have reached stage 3, the breeding water is quickly changed 0.2 nM T4 breeding water, which is a 5-fold dilution of 1 nM T4 breeding water, and further changed to 0.1 nM T4 breeding water on the following day. […] Also, in larvae whose anus position has not reached the last vertical hemal spine, when they are judged to be on the brink of stage 3, the concentration is changed as above. The average amount of thyroid hormone in the breeding water in stage 3 may be, as compared with the breeding water of stage 2, diluted 2-fold to 50-fold, diluted 3 to 15-fold, diluted 4 to 6-fold, or diluted 5-fold as described above. The average amount of thyroid hormone in the breeding water in stage 3 is 0.01 nM to 2 nM, for example, and may also be 0.05 nM to 1 nM, 0.1 nM to 0.5 nM, or 0.1 nM to 0.2 nM. […] That is, the concentration may be changed such that the thyroid hormone becomes undetectable in the breeding water in the course of stage 3.
# In stage 3, breeding is continuously performed in the 0.1 nM T4 breeding water. […]
compound,measurement,setting,value
"N[C@@H](Cc1cc(I)c(Oc2cc(I)c(O)c(I)c2)c(I)c1)C(=O)O [T4, thyroxine]",metamorphosis stage,"individual Exp 5-5, 174 days old, total length 36.1 mm at start, c3 onward = treatment days 1,3,5,7,8,9,10,11,12,13,14,15,16,17, T4 (nM) 10,10,10,10,10,10,10,2,0.2,0.1,0.1,0.1,0.1,0.1, treatment day 16, T4 0.1 nM",3
same,metamorphosis stage,"individual Exp 5-5, 174 days old, total length 36.1 mm at start, c3 onward = treatment days 1,3,5,7,8,9,10,11,12,13,14,15,16,17, T4 (nM) 10,10,10,10,10,10,10,2,0.2,0.1,0.1,0.1,0.1,0.1, treatment day 17, T4 0.1 nM",4
same,metamorphosis stage,"individual Exp 6-2, 129 days old, total length 38.1 mm at start, c3 onward = treatment days 1,3,5,7,9,10,11,12,13,14,15,16,17,18, T4 (nM) 10,10,10,10,10,2,0.2,0.1,0.1,0.1,0.1,0.1,0.1,0.1",3
same,metamorphosis stage,"individual Exp. 5-1, 175 days old, total length 38.5 mm at start, c3 onward = treatment days 1,3,5,7,8,9,10,11,12,13,14,15,16,17,18, T4 (nM) 10,10,10,10,2,1,0.2,0.1,0.1,0.1,0.1,0.1, treatment day 1, T4 10 nM",L
same,metamorphosis stage,"individual Exp. 5-1, 175 days old, total length 38.5 mm at start, c3 onward = treatment days 1,3,5,7,8,9,10,11,12,13,14,15,16,17,18, T4 (nM) 10,10,10,10,2,1,0.2,0.1,0.1,0.1,0.1,0.1, treatment day 3, T4 10 nM",L
same,metamorphosis stage,"individual Exp. 5-1, 175 days old, total length 38.5 mm at start, c3 onward = treatment days 1,3,5,7,8,9,10,11,12,13,14,15,16,17,18, T4 (nM) 10,10,10,10,2,1,0.2,0.1,0.1,0.1,0.1,0.1, treatment day 5, T4 10 nM",1
same,metamorphosis stage,"individual Exp. 5-1, 175 days old, total length 38.5 mm at start, c3 onward = treatment days 1,3,5,7,8,9,10,11,12,13,14,15,16,17,18, T4 (nM) 10,10,10,10,2,1,0.2,0.1,0.1,0.1,0.1,0.1, treatment day 7, T4 10 nM",2
same,metamorphosis stage,"individual Exp. 5-1, 175 days old, total length 38.5 mm at start, c3 onward = treatment days 1,3,5,7,8,9,10,11,12,13,14,15,16,17,18, T4 (nM) 10,10,10,10,2,1,0.2,0.1,0.1,0.1,0.1,0.1, treatment day 8, T4 2 nM",2
same,metamorphosis stage,"individual Exp. 5-1, 175 days old, total length 38.5 mm at start, c3 onward = treatment days 1,3,5,7,8,9,10,11,12,13,14,15,16,17,18, T4 (nM) 10,10,10,10,2,1,0.2,0.1,0.1,0.1,0.1,0.1, treatment day 9, T4 1 nM",2
same,metamorphosis stage,"individual Exp. 5-1, 175 days old, total length 38.5 mm at start, c3 onward = treatment days 1,3,5,7,8,9,10,11,12,13,14,15,16,17,18, T4 (nM) 10,10,10,10,2,1,0.2,0.1,0.1,0.1,0.1,0.1, treatment day 10, T4 0.2 nM",3
same,metamorphosis stage,"individual Exp. 5-1, 175 days old, total length 38.5 mm at start, c3 onward = treatment days 1,3,5,7,8,9,10,11,12,13,14,15,16,17,18, T4 (nM) 10,10,10,10,2,1,0.2,0.1,0.1,0.1,0.1,0.1, treatment day 11, T4 0.1 nM",3
same,metamorphosis stage,"individual Exp. 5-1, 175 days old, total length 38.5 mm at start, c3 onward = treatment days 1,3,5,7,8,9,10,11,12,13,14,15,16,17,18, T4 (nM) 10,10,10,10,2,1,0.2,0.1,0.1,0.1,0.1,0.1, treatment day 12, T4 0.1 nM",3
same,metamorphosis stage,"individual Exp. 5-1, 175 days old, total length 38.5 mm at start, c3 onward = treatment days 1,3,5,7,8,9,10,11,12,13,14,15,16,17,18, T4 (nM) 10,10,10,10,2,1,0.2,0.1,0.1,0.1,0.1,0.1, treatment day 13, T4 0.1 nM",3
same,metamorphosis stage,"individual Exp. 5-1, 175 days old, total length 38.5 mm at start, c3 onward = treatment days 1,3,5,7,8,9,10,11,12,13,14,15,16,17,18, T4 (nM) 10,10,10,10,2,1,0.2,0.1,0.1,0.1,0.1,0.1, treatment day 14, T4 0.1 nM",3
same,metamorphosis stage,"individual Exp. 5-1, 175 days old, total length 38.5 mm at start, c3 onward = treatment days 1,3,5,7,8,9,10,11,12,13,14,15,16,17,18, T4 (nM) 10,10,10,10,2,1,0.2,0.1,0.1,0.1,0.1,0.1, treatment day 15, T4 0.1 nM",4
same,metamorphosis stage,"individual Exp. 5-2, 175 days old, total length 41.3 mm at start, c3 onward = treatment days 1,3,5,7,8,9,10,11,12,13,14,15,16,17,18, T4 (nM) 10,10,10,10,2,1,0.2,0.1,0.1,0.1,0.1,0.1, treatment day 1, T4 10 nM",L
same,metamorphosis stage,"individual Exp. 5-2, 175 days old, total length 41.3 mm at start, c3 onward = treatment days 1,3,5,7,8,9,10,11,12,13,14,15,16,17,18, T4 (nM) 10,10,10,10,2,1,0.2,0.1,0.1,0.1,0.1,0.1, treatment day 3, T4 10 nM",L
same,metamorphosis stage,"individual Exp. 5-2, 175 days old, total length 41.3 mm at start, c3 onward = treatment days 1,3,5,7,8,9,10,11,12,13,14,15,16,17,18, T4 (nM) 10,10,10,10,2,1,0.2,0.1,0.1,0.1,0.1,0.1, treatment day 5, T4 10 nM",2
same,metamorphosis stage,"individual Exp. 5-2, 175 days old, total length 41.3 mm at start, c3 onward = treatment days 1,3,5,7,8,9,10,11,12,13,14,15,16,17,18, T4 (nM) 10,10,10,10,2,1,0.2,0.1,0.1,0.1,0.1,0.1, treatment day 7, T4 10 nM",2
same,metamorphosis stage,"individual Exp. 5-2, 175 days old, total length 41.3 mm at start, c3 onward = treatment days 1,3,5,7,8,9,10,11,12,13,14,15,16,17,18, T4 (nM) 10,10,10,10,2,1,0.2,0.1,0.1,0.1,0.1,0.1, treatment day 8, T4 2 nM",2
same,metamorphosis stage,"individual Exp. 5-2, 175 days old, total length 41.3 mm at start, c3 onward = treatment days 1,3,5,7,8,9,10,11,12,13,14,15,16,17,18, T4 (nM) 10,10,10,10,2,1,0.2,0.1,0.1,0.1,0.1,0.1, treatment day 9, T4 1 nM",2
same,metamorphosis stage,"individual Exp. 5-2, 175 days old, total length 41.3 mm at start, c3 onward = treatment days 1,3,5,7,8,9,10,11,12,13,14,15,16,17,18, T4 (nM) 10,10,10,10,2,1,0.2,0.1,0.1,0.1,0.1,0.1, treatment day 10, T4 0.2 nM",3
same,metamorphosis stage,"individual Exp. 5-2, 175 days old, total length 41.3 mm at start, c3 onward = treatment days 1,3,5,7,8,9,10,11,12,13,14,15,16,17,18, T4 (nM) 10,10,10,10,2,1,0.2,0.1,0.1,0.1,0.1,0.1, treatment day 11, T4 0.1 nM",3
same,metamorphosis stage,"individual Exp. 5-2, 175 days old, total length 41.3 mm at start, c3 onward = treatment days 1,3,5,7,8,9,10,11,12,13,14,15,16,17,18, T4 (nM) 10,10,10,10,2,1,0.2,0.1,0.1,0.1,0.1,0.1, treatment day 12, T4 0.1 nM",3
same,metamorphosis stage,"individual Exp. 5-2, 175 days old, total length 41.3 mm at start, c3 onward = treatment days 1,3,5,7,8,9,10,11,12,13,14,15,16,17,18, T4 (nM) 10,10,10,10,2,1,0.2,0.1,0.1,0.1,0.1,0.1, treatment day 13, T4 0.1 nM",3
